According to US20060148014A1, “Tubulin isotype screening in cancer therapy using hemiasterlin analogs” (priority 2004, published 2006):
Like-named read-outs stand apart in the source and are kept apart here.

Columns and labels:
[1] = system: panel of 19 human breast cancer cell lines; assay: Cell growth inhibition assay, panel of 19 human breast cancer cell lines; type: cell-based; conditions: panel of 19 human breast cancer cell lines
Text: (§1) The following human breast cancer cell lines were obtained from the ATCC. Cells were maintained according to ATCC-recommended culture conditions. AU565 (ATCC Catalog No. ATCC Catalog. No. CRL-2351), BT-20 (ATCC Catalog No. HTB-19), MCF7 (ATCC Catalog No. HTB22), MDA-MB-231 (ATCC Catalog No. HTB-26), MDA-MB-435 (ATCC Catalog No. HTB-129), MDA-MB-468 (ATCC Catalog No. HTB-132), HCC38 (ATCC Catalog No. CRL-2314), HCC70 (ATCC Catalog No. CRL-2315), HCC1143 (ATCC Catalog No. CRL-2321), HCC1428 (ATCC Catalog No. CRL-2327), HCC1500 (ATCC Catalog No. CRL-2329), HCC1806 (ATCC Catalog No. CRL-2335), HCC1954 (ATCC Catalog No. CRL-2338), HCC2218 (ATCC Catalog No. CRL-2343), UACC-812 (ATCC Catalog No. CRL-1897), UACC-893 (ATCC Catalog No. CRL-1902), ZR-75-1 (ATCC Catalog No. CRL-1500), ZR-75-30 (ATCC Catalog No. CRL-1504).
(§2) Cultured human breast cancer cells were placed in 96-well plates and grown in the continuous presence of test compounds for 4 or 7 days. To expose the cells to test compounds for 7 days, medium was replaced with fresh medium containing compounds after 4 days of exposure and cells were incubated for 3 additional days. Cell growth was assessed using modifications (Amin et al., Cancer Res., 47:6040-6045, 1987; incorporated herein by reference) of a methylene blue-based microculture assay (Finlay et al., Anal. Biochem., 139:272-277, 1984; incorporated herein by reference).
Antiproliferative effects of four tubulin-binding anticancer agents were evaluated by a methylene blue-based cell growth inhibin assay in a panel of 19 human breast cancer cell lines. The following agents were used in this study: halichondrin analog E7389, hemiasterlin analog E7974, vinblastine, and paclitaxel. Each IC50 determination was conducted in at least three separate experiments. A presence of multidrug resistance efflux pump (P-glycoprotein or PgP) could markedly affect sensitivity of cell lines to test agents and thus mask correlations between beta-tubulin expression and cell lines' sensitivity to test agents. Cell lines were therefore tested for evidence of PgP expression by monitoring effects of the PgP blocker verapamil (used at a 10 μM concentration) on paclitaxel sensitivity. No evidence for PgP expression was found in any of the cell lines tested (Table 4). […] Inter-drug correlations were seen between sensitivities to the three microtubule polymerization inhibitors E7974, E7389, and vinblastine, but not between the microtubule polymerization stabilizer paclitaxel.

[2] = system: HCC1806 human breast cancer cell line; assay: Cell growth inhibition assay (methylene blue), HCC1806; type: cell-based
Text: as §1, §2
(§3) To investigate the possible expression of PgP by the cell lines used in this study, the antiproliferative effects of paclitaxel were determined in the presence and absence of verapamil, a known inhibitor of PgP.

[3] = system: MCF-7 human breast cancer cell line; assay: Cell growth inhibition assay (methylene blue), MCF-7; type: cell-based
Text: as §1, §2, §3

[4] = system: HCC1419 human breast cancer cell line; assay: Cell growth inhibition assay (methylene blue), HCC1419; type: cell-based
Description: as §2, §3

[5] = system: ZR-75-1 human breast cancer cell line; assay: Cell growth inhibition assay (methylene blue), ZR-75-1; type: cell-based
Text: as §1, §2, §3

[6] = system: AU565 human breast cancer cell line; assay: Cell growth inhibition assay (methylene blue), AU565; type: cell-based
Text: as §1, §2, §3

[7] = system: cells expressing class II β-tubulin; conditions: Haber et al. J. Biol. Chem. 1995; cited from earlier work
[8] = system: UACC-893 human breast cancer cell line; assay: Cell growth inhibition assay (methylene blue), UACC-893; type: cell-based
Text: as §1, §2, §3

[9] = system: MDA-MB-231 human breast cancer cell line; assay: Cell growth inhibition assay (methylene blue), MDA-MB-231; type: cell-based
Text: as §1, §2, §3

[10] = system: MDA-MB-435 human breast cancer cell line; assay: Cell growth inhibition assay (methylene blue), MDA-MB-435; type: cell-based
Text: as §1, §2, §3

[11] = system: UACC-812 human breast cancer cell line; assay: Cell growth inhibition assay (methylene blue), UACC-812; type: cell-based
Text: as §1, §2, §3

[12] = system: ZR-75-30 human breast cancer cell line; assay: Cell growth inhibition assay (methylene blue), ZR-75-30; type: cell-based
Text: as §1, §2, §3

[13] = system: HCC1500 human breast cancer cell line; assay: Cell growth inhibition assay (methylene blue), HCC1500; type: cell-based
Text: as §1, §2, §3

[14] = system: MDA-MB-468 human breast cancer cell line; assay: Cell growth inhibition assay (methylene blue), MDA-MB-468; type: cell-based
Text: as §1, §2, §3

[15] = system: HCC1954 human breast cancer cell line; assay: Cell growth inhibition assay (methylene blue), HCC1954; type: cell-based
Text: as §1, §2, §3

[16] = system: HCC70 human breast cancer cell line; assay: Cell growth inhibition assay (methylene blue), HCC70; type: cell-based
Text: as §1, §2, §3

[17] = system: HCC1143 human breast cancer cell line; assay: Cell growth inhibition assay (methylene blue), HCC1143; type: cell-based
Text: as §1, §2, §3

[18] = system: HCC2218 human breast cancer cell line; assay: Cell growth inhibition assay (methylene blue), HCC2218; type: cell-based
Text: as §1, §2, §3

[19] = system: HCC1428 human breast cancer cell line; assay: Cell growth inhibition assay (methylene blue), HCC1428; type: cell-based
Text: as §1, §2, §3

[20] = system: BT-20 human breast cancer cell line; assay: Cell growth inhibition assay (methylene blue), BT-20; type: cell-based
Text: as §1, §2, §3

[21] = system: HCC38 human breast cancer cell line; assay: Cell growth inhibition assay (methylene blue), HCC38; type: cell-based
Text: as §1, §2, §3

[22] = continuous presence of compound 4 or 7 days, at least three experiments, read-out: Average IC50
[23] = MCF7, continuous presence of compound 4 or 7 days, at least three experiments, read-out: Average IC50
[24] = +10 μM verapamil (PgP blocker), read-out: Paclitaxel IC50 (+10 μM verapamil)
[25] = no verapamil, read-out: Paclitaxel IC50 (no verapamil)
[26] = HC-2218, continuous presence of compound 4 or 7 days, at least three experiments, read-out: Average IC50

In the case of CC(=O)O[C@H]1C(=O)[C@@]2(C)[C@H]([C@H](OC(=O)c3ccccc3)[C@]3(O)C[C@H](OC(=O)[C@H](O)[C@@H](NC(=O)c4ccccc4)c4ccccc4)C(C)=C1C3(C)C)[C@]1(OC(C)=O)CO[C@@H]1C[C@@H]2O [Paclitaxel, paclitaxel], the “fold-difference between IC50's in the most sensitive and the least sensitive cell line” value [1] is reported as 5.8 fold, the IC50 ([2]; HCC-1806, +10 μM verapamil (PgP blocker), read-out: Paclitaxel IC50 (+10 μM verapamil)) is reported as 1.9 nM and the IC50 ([2]; HCC-1806, no verapamil, read-out: Paclitaxel IC50 (no verapamil)) is reported as 1.8 nM. For the same compound, the IC50 [2, 22] was 2.1 nM, the IC50 ([3]; MCF7, +10 μM verapamil (PgP blocker), read-out: Paclitaxel IC50 (+10 μM verapamil)) was 2.7 nM and the IC50 [3, 23] was 2.31 nM. For the same compound, the IC50 ([3]; MCF7, no verapamil, read-out: Paclitaxel IC50 (no verapamil)) was 3.3 nM, the IC50 ([4]; HCC-1419, +10 μM verapamil (PgP blocker), read-out: Paclitaxel IC50 (+10 μM verapamil)) was 7 nM and the IC50 ([4]; HCC-1419, no verapamil, read-out: Paclitaxel IC50 (no verapamil)) was 5.2 nM. It also gave an IC50 [4, 22] of 5.41 nM, an IC50 [5, 24] of 5.9 nM and an IC50 [5, 22] of 3.35 nM. It also gave an IC50 [5, 25] of 5.3 nM, an IC50 ([6]; AU-565, +10 μM verapamil (PgP blocker), read-out: Paclitaxel IC50 (+10 μM verapamil)) of 4.8 nM and an IC50 ([6]; AU-565, no verapamil, read-out: Paclitaxel IC50 (no verapamil)) of 5.4 nM. For the same compound, the IC50 [6, 22] was 2.5 nM, the “effectiveness in treating cells expressing class II β-tubulin” value [7] was “not be effective” and the IC50 [8, 24] was 4.1 nM. For the same compound, the IC50 [8, 22] was 2.73 nM, the IC50 [8, 25] was 6.3 nM and the IC50 [9, 24] was 5.1 nM. It also gave an IC50 [9, 22] of 5.07 nM, an IC50 [9, 25] of 4.9 nM and an IC50 [10, 24] of 2.7 nM. The IC50 [10, 22] was 2.42 nM, the IC50 [10, 25] was 2.6 nM and the IC50 [11, 24] was 1.9 nM. The IC50 [11, 22] was 1.46 nM, the IC50 [11, 25] was 2.7 nM and the IC50 [12, 24] was 4.1 nM. The IC50 [12, 22] was 4.06 nM, the IC50 [12, 25] was 3.9 nM and the IC50 ([13]; HCC-1500, +10 μM verapamil (PgP blocker), read-out: Paclitaxel IC50 (+10 μM verapamil)) was 3.2 nM. It also gave an IC50 ([13]; HCC-1500, no verapamil, read-out: Paclitaxel IC50 (no verapamil)) of 4.6 nM, an IC50 [13, 22] of 2.48 nM and an IC50 [14, 24] of 5.4 nM. For the same compound, the IC50 [14, 22] was 4.3 nM, the IC50 [14, 25] was 5.1 nM and the IC50 ([15]; HCC-1954, +10 μM verapamil (PgP blocker), read-out: Paclitaxel IC50 (+10 μM verapamil)) was 11.7 nM. It also gave an IC50 ([15]; HCC-1954, no verapamil, read-out: Paclitaxel IC50 (no verapamil)) of 11.7 nM, an IC50 [15, 22] of 8.48 nM and an IC50 ([16]; HCC-70, +10 μM verapamil (PgP blocker), read-out: Paclitaxel IC50 (+10 μM verapamil)) of 1.9 nM. It also gave an IC50 ([16]; HCC-70, no verapamil, read-out: Paclitaxel IC50 (no verapamil)) of 2 nM, an IC50 [16, 22] of 2.25 nM and an IC50 ([17]; HCC-1143, +10 μM verapamil (PgP blocker), read-out: Paclitaxel IC50 (+10 μM verapamil)) of 2.9 nM. It also gave an IC50 ([17]; HCC-1143, no verapamil, read-out: Paclitaxel IC50 (no verapamil)) of 2.8 nM, an IC50 [17, 22] of 2.11 nM and an IC50 [18, 26] of 6.72 nM. The IC50 ([18]; HCC-2218, +10 μM verapamil (PgP blocker), read-out: Paclitaxel IC50 (+10 μM verapamil)) was 5 nM, the IC50 ([18]; HCC-2218, no verapamil, read-out: Paclitaxel IC50 (no verapamil)) was 5.6 nM and the IC50 ([19]; HCC-1428, +10 μM verapamil (PgP blocker), read-out: Paclitaxel IC50 (+10 μM verapamil)) was 9.5 nM. For the same compound, the IC50 ([19]; HCC-1428, no verapamil, read-out: Paclitaxel IC50 (no verapamil)) was 9 nM, the IC50 [19, 22] was 5.03 nM and the IC50 [20, 24] was 2.7 nM. The IC50 [20, 22] was 2.63 nM, the IC50 [20, 25] was 3.9 nM and the IC50 ([21]; HCC-38, +10 μM verapamil (PgP blocker), read-out: Paclitaxel IC50 (+10 μM verapamil)) was 6.2 nM. It also gave an IC50 ([21]; HCC-38, no verapamil, read-out: Paclitaxel IC50 (no verapamil)) of 5.9 nM and an IC50 [21, 22] of 2.94 nM.
With CC[C@]1(O)C[C@@H]2CN(CCc3c([nH]c4ccccc34)[C@@](C(=O)OC)(c3cc4c(cc3OC)N(C)[C@H]3[C@@](O)(C(=O)OC)[C@H](OC(C)=O)[C@]5(CC)C=CCN6CC[C@]43[C@@H]65)C2)C1 [Vinblastine, vinblastine] the “fold-difference between IC50's in the most sensitive and the least sensitive cell line” value [1] was 5.6 fold, the IC50 [2, 22] was 0.86 nM and the IC50 [3, 23] was 0.89 nM. The IC50 [4, 22] was 1.7 nM, the IC50 [5, 22] was 1.72 nM and the IC50 [6, 22] was 1.05 nM. For the same compound, the IC50 [8, 22] was 1.32 nM, the IC50 [9, 22] was 1.6 nM and the IC50 [10, 22] was 0.43 nM. For the same compound, the IC50 [11, 22] was 1.11 nM, the IC50 [12, 22] was 2.4 nM and the IC50 [13, 22] was 0.56 nM. The IC50 [14, 22] was 0.82 nM, the IC50 [15, 22] was 0.7 nM and the IC50 [16, 22] was 0.8 nM. The IC50 [17, 22] was 0.53 nM, the IC50 [18, 26] was 1.56 nM and the IC50 [19, 22] was 0.55 nM. The IC50 [20, 22] was 1.15 nM and the IC50 [21, 22] was 0.73 nM.
